Biological target: T1, Rat Androgen Receptor (Rattus norvegicus, UniProt P15207)
T1 construct: purchased Life Technologies A15880
T1 sequence (P15207 646-902 limits assumed): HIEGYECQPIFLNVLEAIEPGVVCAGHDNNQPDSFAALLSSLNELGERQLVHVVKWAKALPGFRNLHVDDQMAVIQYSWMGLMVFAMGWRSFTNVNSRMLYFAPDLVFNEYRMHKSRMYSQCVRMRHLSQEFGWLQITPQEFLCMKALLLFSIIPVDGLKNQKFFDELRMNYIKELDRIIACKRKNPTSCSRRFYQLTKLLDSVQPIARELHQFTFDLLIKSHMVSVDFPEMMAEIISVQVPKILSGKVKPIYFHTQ
Assay: Rat Androgen Receptor Binding (polarscreen AR competitor assay, fluorescence polarization)
Settings: displacement of Fluormone AL Green, 4 hours at RT, read-out: AR rat-fluorimetric
Procedure: Pharmacological Activity Rat Androgen Receptor Binding
The assay was carried out following the instructions of polarscreen AR competitor assay green kit (Life Technologies, Cat #.: A15880). Briefly, the test is based on measuring the changes of fluorescence polarization shown by the Fluormone AL Green. Thus, when the Fluormone is bound to the receptor, a fluorescence polarization is observed that diminishes when a ligand competes for the receptor binding site and the Fluormone gets displaced.
The inhibition values for each of the compounds are measured in duplicate at 1 and 10 μM and the plate is incubated for 4 hours at RT. Fluorescence polarization is the measured in a Tecan Infinite M1000 Pro reader (λexc=485 nm, λem=535 nm). In order to obtain a dose-response curve and calculate the potency of inhibition (expressed as IC50) for AR, a series of 1:10 dilutions in test in 1× buffer from 10 μM to 0.1 nM for each compound was carried out.

| IC50 | SMILES |
| --- | --- |
| < 100 nM | COC(=O)C1=C(C)NC(C)=C(C(C)=O)C1c1csc2ccccc12 (single isomer, unassigned) [Example A3, Methyl 5-acetyl-4-(benzo[b]thiophen-3-yl)-2,6-dimethyl-1,4-dihydro-pyridine-3-carboxylate] |
| < 100 nM | CC(=O)C1=C(C)NC(C)=C(C(C)=O)C1c1csc2ccc(Br)cc12 [Example H2, 1,1′-(4-(5-bromobenzo[b]thiophen-3-yl)-2,6-dimethyl-1,4-dihydropyridine-3,5-diyl)diethanone] |
| ≥ 1000 nM | CC(=O)C1=C(C)NC(C)=C(C(C)=O)C1c1csc2cnccc12 [Example H14, 1,1′-(2,6-Dimethyl-4-(thieno[2,3-c]pyridin-3-yl)-1,4-dihydropyridine-3,5-diyl)bis(ethan-1-one)] |
| ≥ 1000 nM | CC(=O)C1=C(C)NC(C)=C(C(=O)OC2CCC(C)(C)CC2)C1c1csc2ccccc12 (stereo not drawn) [Example C27, 4,4-dimethylcyclohexyl 5-acetyl-4-(benzo[b]thiophen-3-yl)-2,6-dimethyl-1,4-dihydropyridine-3-carboxylate] |
| < 100 nM | COC(=O)C1=C(C2CC2)NC(C)=C(C(C)=O)C1c1csc2ccccc12 (stereo not drawn) [Example J1, Methyl 5-acetyl-4-(benzo[b]thiophen-3-yl)-2-cyclopropyl-6-methyl-1,4-dihydropyridine-3-carboxylate] |
| < 100 nM | COC(=O)C1=C(C)NC(C)=C(C(C)=O)C1c1csc2ccc(Br)cc12 (stereo not drawn) [Example J12, Methyl 5-acetyl-4-(5-bromobenzo[b]thiophen-3-yl)-2,6-dimethyl-1,4-dihydropyridine-3-carboxylate] |
| ≥ 1000 nM | COC(=O)C1=C(C)NC(C)=C(C(C)=O)C1c1csc2ccc(C(=O)NC3CC3)cc12 (stereo not drawn) [Example J15, Methyl 5-acetyl-4-(5-(cyclopropylcarbamoyl)benzo[b]thiophen-3-yl)-2,6-dimethyl-1,4-dihydropyridine-3-carboxylate] |
| 100 to 1000 nM | COCCC1=C(C(=O)OC)C(c2csc3ccccc23)C(C(C)=O)=C(C)N1 (stereo not drawn) [Example C7, Methyl 5-acetyl-4-(benzo[b]thiophen-3-yl)-2-(2-methoxyethyl)-6-methyl-1,4-dihydropyridine-3-carboxylate] |
| ≥ 1000 nM | COC(=O)C1=C(C2CC2)NC(C2CC2)=C(C(C)=O)C1c1csc2ccccc12 (stereo not drawn) [Example J24, Methyl 5-acetyl-4-(benzo[b]thiophen-3-yl)-2,6-dicyclopropyl-1,4-dihydropyridine-3-carboxylate] |
| ≥ 1000 nM | CC(=O)C1=C(C)NC(C)=C(C(C)=O)C1c1csc2ccc(C(=O)NC3CC3)cc12 [Example H9, N-cyclopropyl-3-(3,5-diacetyl-2,6-dimethyl-1,4-dihydropyridin-4-yl)benzo[b]thiophene-5-carboxamide] |
| ≥ 1000 nM | COCC1=C(C(C)=O)C(c2csc3ccccc23)C(C(=O)OC)=C(C)N1 (stereo not drawn) [Example C19, Methyl 5-acetyl-4-(benzo[b]thiophen-3-yl)-6-(methoxymethyl)-2-methyl-1,4-dihydropyridine-3-carboxylate] |
| ≥ 1000 nM | CC(=O)C1=C(C)NC(C)=C(C(C)=O)C1c1csc2ccc(C(=O)O)cc12 [Example H8, 3-(3,5-diacetyl-2,6-dimethyl-1,4-dihydropyridin-4-yl)benzo[b]thiophene-5-carboxylic acid] |
| < 100 nM | CC(=O)C1=C(C)NC(C)=C(C(=O)OCC2CCCC2)C1c1csc2ccccc12 (stereo not drawn) [Example C23, Cyclopentylmethyl 5-acetyl-4-(benzo[b]thiophen-3-yl)-2,6-dimethyl-1,4-dihydropyridine-3-carboxylate] |
| ≥ 1000 nM | CC(=O)C1=C(C)NC(C)=C(C(C)=O)C1c1csc2cc(O)ccc12 [Example G2, 1,1′-(4-(6-hydroxybenzo[b]thiophen-3-yl)-2,6-dimethyl-1,4-dihydropyridine-3,5-diyl)bis(ethan-1-one)] |
| < 100 nM | COC(=O)C1=C(C(F)(F)F)NC(C)=C(C(C)=O)C1c1csc2ccc(F)cc12 (stereo not drawn) [Example C29, Methyl 5-acetyl-4-(5-fluorobenzo[b]thiophen-3-yl)-6-methyl-2-(trifluoromethyl)-1,4-dihydropyridine-3-carboxylate] |
| ≥ 1000 nM | COC(=O)C1=C(C)NC(C)=C(C(C)=O)C1c1csc2ccc(C(=O)NCC3CC3)cc12 (stereo not drawn) [Example J16, Methyl 5-acetyl-4-(5-((cyclopropylmethyl)carbamoyl)benzo[b]thiophen-3-yl)-2,6-dimethyl-1,4-dihydropyridine-3-carboxylate] |
| ≥ 1000 nM | COc1ccc2c(C3C(C(C)=O)=C(C)NC(C)=C3C(C)=O)csc2c1 [Example G3, 1,1′-(4-(6-Methoxybenzo[b]thiophen-3-yl)-2,6-dimethyl-1,4-dihydropyridine-3,5-diyl)diethanone] |

| IC50 | SMILES |
| --- | --- |
| 100 to 1000 nM | COC(=O)C1=C(C)NC(C)=C(C(C)=O)C1c1csc2ccccc12 (single isomer, unassigned) [Example A2, Methyl 5-acetyl-4-(benzo[b]thiophen-3-yl)-2,6-dimethyl-1,4-dihydro-pyridine-3-carboxylate] |
| < 100 nM | CC(=O)C1=C(C)NC(C)=C(C(C)=O)C1c1csc2ccc(Cl)cc12 [Example H1, 1,1′-(4-(5-chlorobenzo[b]thiophen-3-yl)-2,6-dimethyl-1,4-dihydropyridine-3,5-diyl)diethanone] |
| ≥ 1000 nM | CC(=O)C1=C(C)NC(C)=C(C(=O)OCc2cncc(-c3cccnc3)c2)C1c1csc2ncccc12 (stereo not drawn) [Example L8, [3,3′-bipyridin]-5-ylmethyl 5-acetyl-2,6-dimethyl-4-(thieno[2,3-b]pyridin-3-yl)-1,4-dihydropyridine-3-carboxylate] |
| ≥ 1000 nM | CC(=O)C1=C(C)NC(C)=C(C(C)=O)C1c1csc2ccc(N3CCOCC3)cc12 [Example H4, 1,1′-(2,6-dimethyl-4-(5-morpholinobenzo[b]thiophen-3-yl)-1,4-dihydropyridine-3,5-diyl)bis(ethan-1-one)] |
| ≥ 1000 nM | COC(=O)C1=C(C)NC(C)=C(C(C)=O)C1c1csc2ccncc12 (stereo not drawn) [Example J19, Methyl 5-acetyl-2,6-dimethyl-4-(thieno[3,2-c]pyridin-3-yl)-1,4-dihydropyridine-3-carboxylate] |
| ≥ 1000 nM | CC(=O)C1=C(C)NC(C)=C(C(C)=O)C1c1csc2ccc(N3CCN(C)CC3)cc12 [Example H5, 1,1′-(2,6-dimethyl-4-(5-(4-methylpiperazin-1-yl)benzo[b]thiophen-3-yl)-1,4-dihydropyridine-3,5-diyl)bis(ethan-1-one)] |
| 100 to 1000 nM | CC(=O)C1=C(C)NC(C)=C(S(C)(=O)=O)C1c1csc2ccccc12 (stereo not drawn) [Example J10, 1-(4-(benzo[b]thiophen-3-yl)-2,6-dimethyl-5-(methylsulfonyl)-1,4-dihydro-pyridin-3-yl)ethanone] |
| < 100 nM | CCOC(=O)C1=C(C)NC(C)=C(C(C)=O)C1c1csc2ccccc12 (stereo not drawn) [Example J2, Ethyl 5-acetyl-4-(benzo[b]thiophen-3-yl)-2,6-dimethyl-1,4-dihydropyridine-3-carboxylate] |
| < 100 nM | CC(=O)C1=C(C)NC(C2CC2)=C(C(=O)C2CC2)C1c1csc2ccccc12 (stereo not drawn) [Example B18, 1-(4-(Benzo[b]thiophen-3-yl)-5-(cyclopropanecarbonyl)-6-cyclopropyl-2-methyl-1,4-dihydropyridin-3-yl)ethan-1-one] |
| ≥ 1000 nM | COC(=O)C1=C(C)NC(C)=C(C(C)=O)C1c1csc2ccc(C#N)cc12 (stereo not drawn) [Example J13, Methyl 5-acetyl-4-(5-cyanobenzo[b]thiophen-3-yl)-2,6-dimethyl-1,4-dihydropyridine-3-carboxylate] |
| < 100 nM | CC(=O)C1=C(C)NC(C)=C(C(=O)OC2CCCCC2)C1c1csc2ccccc12 (stereo not drawn) [Example C3, Cyclohexyl 5-acetyl-4-(benzo[b]thiophen-3-yl)-2,6-dimethyl-1,4-dihydropyridine-3-carboxylate] |
| ≥ 1000 nM | CC(=O)C1=C(C)NC(C)=C(C(C)=O)C1c1csc2ccc(F)cc12 [Example H3, 1,1′-(4-(5-fluorobenzo[b]thiophen-3-yl)-2,6-dimethyl-1,4-dihydropyridine-3,5-diyl)bis(ethan-1-one)] |
| < 100 nM | COC(=O)C1=C(C)NC(C)=C(C(C)=O)C1c1csc2ccccc12 (racemic) [Example A1, Methyl 5-acetyl-4-(benzo[b]thiophen-3-yl)-2,6-dimethyl-1,4-dihydro-pyridine-3-carboxylate] |
| < 100 nM | CC(=O)C1=C(C)NC(C)=C(C(=O)OCC(F)(F)F)C1c1csc2ccccc12 (stereo not drawn) [Example A10, 2,2,2-trifluoroethyl 5-acetyl-4-(benzo[b]thiophen-3-yl)-2,6-dimethyl-1,4-dihydropyridine-3-carboxylate] |
| ≥ 1000 nM | COC(=O)C1=C(C)NC(C)=C(C(C)=O)C1c1csc2ccc(C(=O)N3CCOCC3)cc12 (stereo not drawn) [Example J18, Methyl 5-acetyl-2,6-dimethyl-4-(5-(morpholine-4-carbonyl)benzo[b]thiophen-3-yl)-1,4-dihydropyridine-3-carboxylate] |
| ≥ 1000 nM | CC(=O)C1=C(C)NC(C)=C(C(C)=O)C1c1csc2ccc(-c3cccnc3)cc12 [Example M1, 1,1′-(2,6-dimethyl-4-(5-(pyridin-3-yl)benzo[b]thiophen-3-yl)-1,4-dihydro-pyridine-3,5-diyl)diethanone] |
